Read-outs that look alike come from different tables or passages of the source.
Experiments:
anaesthetized dog = assay: Antiangorous activity on anaesthetized dog: consumption of oxygen in the left ventricule and cardiac effort (KATZ's index); format: in vivo; conditions: for inhibition in vivo at 0.14 mg/kg / inhibition in vivo at 2.5 mg/kg / inhibition in vivo at […] / inhibition in vivo at 0.625 mg/kg / inhibition in vivo at 2.1 mg/kg / inhibition in vivo at 1.25 mg/kg / inhibition in vivo at 2.3 mg/kg: Canis lupus familiaris, iv; for inhibition in vivo at […]: 0.15 mg/kg i.v. slow perfusion
Procedure: The antiangorous activity was tested on an anaesthetized dog (sodium pentobarbital 30 mg/kg/i.v.).
The consumption of oxygen in the left ventricule was estimated by the product of the coronary venous flow and the coronary arteriovenous difference in oxygen (% volume).
The coronary venous flow was measured at the coronary venous sinus by means of a modified Morawitz cannula, introduced under radioscopic control.
The cardiac effort was estimated according to KATZ's index, by the product of the average arterial pressure and the cardiac frequency.
The cardiac frequency was estimated from the electrocardiogram recorded with D2 derivation.
It should be noted that the compounds tested were injected intravenously with slow perfusion.

in vivo = conditions: for LD50: read-out: Toxicity: LD50; for mortality: read-out: Toxicity (Mortality)
Description: *LD50 or percentage of mortality which is given between brackets

[1] = 0.14 mg/kg i.v. slow perfusion, read-out: Diminution in consumption of O2
[2] = 0.14 mg/kg i.v. slow perfusion, read-out: Diminution in the cardiac effort (IK)
[3] = 2.5 mg/kg i.v. slow perfusion, read-out: Diminution in consumption of O2
[4] = 2.5 mg/kg i.v. slow perfusion, read-out: Diminution in the cardiac effort (IK)
[5] = read-out: Diminution in consumption of O2
[6] = read-out: Diminution in the cardiac effort (IK)
[7] = 0.625 mg/kg i.v. slow perfusion
[8] = 0.625 mg/kg i.v. slow perfusion, read-out: Diminution in consumption of O2
[9] = 0.625 mg/kg i.v. slow perfusion, read-out: Diminution in the cardiac effort (IK)

| SMILES | LD50 (in vivo; iv) [mg/kg] | Diminution in consumption of O2: in time (anaesthetized dog; 2.5 mg/kg i.v. slow perfusion) [min] | Diminution in the cardiac effort (IK): in time (anaesthetized dog; 2.5 mg/kg i.v. slow perfusion) [min] | inhibition in vivo at 2.5 mg/kg (anaesthetized dog; [3]) [%] | inhibition in vivo at 2.5 mg/kg (anaesthetized dog; [4]) [%] | mortality (in vivo; iv, 400 mg/kg i.v.) [%] | further results |
| --- | --- | --- | --- | --- | --- | --- | --- |
| COc1cc(/C=C/C(=O)N2CCN(CC(O)COc3ccc(NC(=O)NC4CCCCC4)c4c3OCCO4)CC2)cc(OC)c1OC (stereo not shown) [770 081] | 148 | – | – | – | – | – | Diminution in consumption of O2: in time (anaesthetized dog; 0.14 mg/kg i.v. slow perfusion): 53 min; Diminution in the cardiac effort (IK): in time (anaesthetized dog; 0.14 mg/kg i.v. slow perfusion): 15 min; inhibition in vivo at 0.14 mg/kg (anaesthetized dog; [1]): 58%; inhibition in vivo at 0.14 mg/kg (anaesthetized dog; [2]): 20% |
| COc1cc(/C=C/C(=O)N2CCN(CC(O)COc3ccc(CC#N)cc3)CC2)cc(OC)c1OC (stereo not shown) [770 488] | 225 | 30 | 15 | 78 | 17 | – | – |
| COc1cc(/C=C/C(=O)N2CCN(CC(O)COc3ccc(NC(=O)N(C)C)c4c3OCCO4)CC2)cc(OC)c1OC (stereo not shown) [771 233] | 310 | – | – | – | – | – | inhibition in vivo at […] (anaesthetized dog; [5]): 29%; inhibition in vivo at […] (anaesthetized dog; [6]): 9% |
| CNC(=O)Nc1ccc(OCC(O)CN2CCN(C(=O)/C=C/c3cc(OC)c(OC)c(OC)c3)CC2)cc1 (stereo not shown) [770 056] | 160 | – | – | – | – | – | Diminution in consumption of O2: in time (anaesthetized dog; [7]): 15 min; Diminution in the cardiac effort (IK): in time (anaesthetized dog; [7]): 15 min; inhibition in vivo at 0.625 mg/kg (anaesthetized dog; [8]): 49%; inhibition in vivo at 0.625 mg/kg (anaesthetized dog; [9]): 22% |
| COc1cc(/C=C/C(=O)N2CCN(CC(O)COc3ccc(C(C)=O)c4c3OCCO4)CC2)cc(OC)c1OC (stereo not shown) [760 394] | 214 | – | – | – | – | – | Diminution in consumption of O2: in time (anaesthetized dog; 2.1 mg/kg i.v. slow perfusion): 60 min; Diminution in the cardiac effort (IK): in time (anaesthetized dog; 2.1 mg/kg i.v. slow perfusion): 45 min; inhibition in vivo at 2.1 mg/kg (anaesthetized dog; 2.1 mg/kg i.v. slow perfusion, read-out: Diminution in consumption of O2): 60%; inhibition in vivo at 2.1 mg/kg (anaesthetized dog; 2.1 mg/kg i.v. slow perfusion, read-out: Diminution in the cardiac effort (IK)): 46% |
| COc1cc(/C=C/C(=O)N2CCN(CC(O)COc3ccc(CC(N)=O)c4c3OCCO4)CC2)cc(OC)c1OC (stereo not shown) [770 386] | – | – | – | – | – | 20 | Diminution in consumption of O2: in time (anaesthetized dog; [7]): 30 min; Diminution in the cardiac effort (IK): in time (anaesthetized dog; [7]): 30 min; inhibition in vivo at 0.625 mg/kg (anaesthetized dog; [8]): 41%; inhibition in vivo at 0.625 mg/kg (anaesthetized dog; [9]): 20% |
| CNC(=O)Nc1ccc(OCCCN2CCN(C(=O)/C=C/c3cc(OC)c(OC)c(OC)c3)CC2)c2c1OCCO2 [780 040] | – | 15 | – | 59 | 9 | 30 | – |
| COc1cc(NC(C)=O)ccc1OCC(O)CN1CCN(C(=O)/C=C/c2cc(OC)c(OC)c(OC)c2)CC1 (stereo not shown) [770 487] | – | 60 | – | 47 | 14 | 30 | – |
| CNC(=O)Cc1ccc(OCC(O)CN2CCN(C(=O)/C=C/c3cc(OC)c(OC)c(OC)c3)CC2)c2c1OCCO2 (stereo not shown) [770 382] | – | – | – | – | – | 30 | Diminution in consumption of O2: in time (anaesthetized dog; [7]): 15 min; Diminution in the cardiac effort (IK): in time (anaesthetized dog; [7]): 15 min; inhibition in vivo at 0.625 mg/kg (anaesthetized dog; [8]): 36%; inhibition in vivo at 0.625 mg/kg (anaesthetized dog; [9]): 16% |
| COc1cc(/C=C/C(=O)N2CCN(CC(O)COc3ccc(NC(=O)Nc4ccccc4)c4c3OCCO4)CC2)cc(OC)c1OC (stereo not shown) [770 085] | – | – | – | – | – | – | inhibition in vivo at […] (anaesthetized dog; [5]): 44%; inhibition in vivo at […] (anaesthetized dog; [6]): 14%; mortality (in vivo; po, p.o.: 1855 mg/kg): 0% |
| COc1cc(/C=C/C(=O)N2CCN(CC(O)COc3ccc(C(N)=O)cc3)CC2)cc(OC)c1OC (stereo not shown) [770 058] | 315 | 30 | 30 | 36 | 35 | – | – |
| COc1cc(/C=C/C(=O)N2CCN(CC(O)COc3cccc(NC(C)=O)c3)CC2)cc(OC)c1OC (stereo not shown) [770 844] | – | 23 | 30 | 58 | 35 | 0 | – |
| COc1cc(/C=C/C(=O)N2CCN(CC(O)COc3ccc(C(=O)NC4CCCCC4)c4c3OCCO4)CC2)cc(OC)c1OC (stereo not shown) [770 831] | – | – | – | – | – | – | Diminution in consumption of O2: in time (anaesthetized dog; 1.25 mg/kg i.v. slow perfusion): 30 min; Diminution in the cardiac effort (IK): in time (anaesthetized dog; 1.25 mg/kg i.v. slow perfusion): 45 min; inhibition in vivo at 1.25 mg/kg (anaesthetized dog; 1.25 mg/kg i.v. slow perfusion, read-out: Diminution in consumption of O2): 45%; inhibition in vivo at 1.25 mg/kg (anaesthetized dog; 1.25 mg/kg i.v. slow perfusion, read-out: Diminution in the cardiac effort (IK)): 27%; mortality (in vivo; po, p.o.: 2000 mg/kg): 0% |
| COc1cc(/C=C/C(=O)N2CCN(CC(O)COc3ccc(C(C)=O)c4c3OCCO4)CC2)cc(OC)c1OC(C)C (stereo not shown) [770 727] | 130 | 15 | 30 | 57 | 27 | – | – |
| COc1cc(/C=C/C(=O)N2CCN(CC(O)COc3ccc(NC(C)=O)cc3)CC2)cc(OC)c1OC (stereo not shown) [760 542] | – | 45 | 50 | 64 | 32 | 0 | – |
| COc1cc(/C=C/C(=O)N2CCN(CC(O)COc3ccc(C(=O)Nc4ccccc4)c4c3OCCO4)CC2)cc(OC)c1OC (stereo not shown) [770 848] | – | – | – | – | – | 10 | inhibition in vivo at […] (anaesthetized dog; [5]): 41%; inhibition in vivo at […] (anaesthetized dog; [6]): 5% |
| CCC(=O)Nc1ccc(OCC(O)CN2CCN(C(=O)/C=C/c3cc(OC)c(OC)c(OC)c3)CC2)c2c1OCCO2 (stereo not shown) [770 545] | – | – | – | – | – | 40 | Diminution in consumption of O2: in time (anaesthetized dog; [7]): 30 min; Diminution in the cardiac effort (IK): in time (anaesthetized dog; [7]): 15 min; inhibition in vivo at 0.625 mg/kg (anaesthetized dog; [8]): 61%; inhibition in vivo at 0.625 mg/kg (anaesthetized dog; [9]): 16% |
| COc1cc(OC)cc(OCC(O)CN2CCN(C(=O)/C=C/c3cc(OC)c(OC)c(OC)c3)CC2)c1 (stereo not shown) [760 620] | 285 | 30 | 30 | 22 | 10 | – | – |
| COc1cc(/C=C/C(=O)N2CCN(CC(O)COc3ccc(C(C)=O)c4c3OCO4)CC2)cc(OC)c1OC (stereo not shown) [780 308] | – | 45 | 45 | 49 | 37 | 10 | – |
| CCOC(=O)Cc1ccc(OCC(O)CN2CCN(C(=O)/C=C/c3cc(OC)c(OC)c(OC)c3)CC2)c2c1OCCO2 (stereo not shown) [770 312] | 259 | – | – | – | – | – | Diminution in consumption of O2: in time (anaesthetized dog; 0.14 mg/kg i.v. slow perfusion): 30 min; inhibition in vivo at 0.14 mg/kg (anaesthetized dog; [1]): 30%; inhibition in vivo at 0.14 mg/kg (anaesthetized dog; [2]): 9% |
| CNC(=O)c1ccc(OCC(O)CN2CCN(C(=O)/C=C/c3cc(OC)c(OC)c(OC)c3)CC2)c(OC)c1 (stereo not shown) [770 855] | 260 | 60 | 60 | 60 | 45 | – | – |
| COc1cc(/C=C/C(=O)N2CCN(CC(O)COc3ccc(NC(=O)C(C)C)c4c3OCCO4)CC2)cc(OC)c1OC (stereo not shown) [770 692] | – | – | – | – | – | – | Diminution in consumption of O2: in time (anaesthetized dog; [7]): 15 min; Diminution in the cardiac effort (IK): in time (anaesthetized dog; [7]): 30 min; inhibition in vivo at 0.625 mg/kg (anaesthetized dog; [8]): 60%; inhibition in vivo at 0.625 mg/kg (anaesthetized dog; [9]): 45%; mortality (in vivo; iv, 200 mg/kg i.v.): 60% |
| CCOc1c(OC)cc(/C=C/C(=O)N2CCN(CC(O)COc3ccc(C(C)=O)c4c3OCCO4)CC2)cc1OC (stereo not shown) [770 504] | 145 | 15 | – | 52 | 10 | – | – |
| COc1cc(/C=C/C(=O)N2CCN(CC(O)COc3ccccc3F)CC2)cc(OC)c1OC (stereo not shown) [760 619] | 158 | – | – | – | – | – | Diminution in consumption of O2: in time (anaesthetized dog; 2.3 mg/kg i.v. slow perfusion): 30 min; Diminution in the cardiac effort (IK): in time (anaesthetized dog; 2.3 mg/kg i.v. slow perfusion): 30 min; inhibition in vivo at 2.3 mg/kg (anaesthetized dog; 2.3 mg/kg i.v. slow perfusion, read-out: Diminution in consumption of O2): 55%; inhibition in vivo at 2.3 mg/kg (anaesthetized dog; 2.3 mg/kg i.v. slow perfusion, read-out: Diminution in the cardiac effort (IK)): 44% |
| COc1cc(/C=C/C(=O)N2CCN(CC(O)COCc3ccccc3)CC2)cc(OC)c1OC (stereo not shown) [770 276] | 248 | 23 | – | 59 | – | – | – |
| COc1cc(/C=C/C(=O)N2CCN(CC(O)COc3cccc4c3OCCO4)CC2)cc(OC)c1OC (stereo not shown) [760 519] | 218 | 15 | 15 | 51 | 11 | – | – |

Source: patent publication US4178442A, “Novel cinnamoyles piperazines and homopiperazines, the method of preparing them and their application in therapeutics” (Delalande S. A., priority 1977, dated 1979)
